# Patent US12643871B2, “Aryl formamide compound containing chiral sulfur oxide or salt thereof, preparation method, herbicidal composition and use thereof” (Qingdao Kingagroot Chemical Compound Co., Ltd., priority 2019, dated 2026)
# Legend:
# Assay in all cases: Weeding effect in post-emergence stage
# Assay type in all cases: in vivo
# Details in all cases: 250 g/ha; 2 leaf stage; 15 days after application; fresh weight control rate
# [1] = system: Abutilon theophrasti
# Procedure, shortened: (§1)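 Reported levels reflect fresh weight growth control rate banded 0 (<5%) through 5 (>85%), averaged over three repetitions. Treatment: foliar spray of 2-leaf-stage greenhouse plants at 15 to 500 g/ha, with 1.5 liter/ha methyl oleate synergist; assessment 15 days after application.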
# [2] = system: Digitaria sanguinalis
# Procedure, shortened: as §1
# [3] = system: Amaranthus retroflexus
# Procedure, shortened: as §1
# [4] = system: Setaria viridis
# Procedure, shortened: as §1
# [5] = system: Echinochloa crusgali
# Procedure, shortened: as §1
SMILES,"weeding effect in post-emergence stage, activity level (growth control rate), Abutilon theophrasti [1]","weeding effect in post-emergence stage, activity level (growth control rate), Digitaria sanguinalis [2]","weeding effect in post-emergence stage, activity level (growth control rate), Amaranthus retroflexus [3]","weeding effect in post-emergence stage, activity level (growth control rate), Setaria viridis [4]","weeding effect in post-emergence stage, activity level (growth control rate), Echinochloa crusgali [5]"
COc1c(C(=O)Nc2nnc(C)o2)ccc(C(F)(F)F)c1[S@+]([O-])CCF [Compound 319],5 (Level 5: growth control rate is above 85%),5 (Level 5: growth control rate is above 85%),5 (Level 5: growth control rate is above 85%),5 (Level 5: growth control rate is above 85%),5 (Level 5: growth control rate is above 85%)
COc1c(C(=O)Nc2nnc(C)o2)ccc(C(F)(F)F)c1[S@+]([O-])CCCF [Compound 320],5 (Level 5: growth control rate is above 85%),5 (Level 5: growth control rate is above 85%),5 (Level 5: growth control rate is above 85%),5 (Level 5: growth control rate is above 85%),5 (Level 5: growth control rate is above 85%)
COc1c(C(=O)Nc2nnc(C)o2)ccc(C(F)(F)F)c1[S@@+]([O-])C(F)F [Compound 322],5 (Level 5: growth control rate is above 85%),5 (Level 5: growth control rate is above 85%),5 (Level 5: growth control rate is above 85%),5 (Level 5: growth control rate is above 85%),5 (Level 5: growth control rate is above 85%)
COc1c(C(=O)Nc2nnc(C)o2)ccc(C(F)(F)F)c1[S@+]([O-])CC(F)F [Compound 323],5 (Level 5: growth control rate is above 85%),5 (Level 5: growth control rate is above 85%),5 (Level 5: growth control rate is above 85%),5 (Level 5: growth control rate is above 85%),5 (Level 5: growth control rate is above 85%)
COc1c(C(=O)Nc2nnc(C)o2)ccc(C(F)(F)F)c1[S@+]([O-])CC(F)(F)F [Compound 324],5 (Level 5: growth control rate is above 85%),5 (Level 5: growth control rate is above 85%),5 (Level 5: growth control rate is above 85%),5 (Level 5: growth control rate is above 85%),5 (Level 5: growth control rate is above 85%)
COc1c(C(=O)Nc2nnc(C)o2)ccc(C(F)(F)F)c1[S@+]([O-])CCC(F)(F)F [Compound 325],5 (Level 5: growth control rate is above 85%),5 (Level 5: growth control rate is above 85%),5 (Level 5: growth control rate is above 85%),5 (Level 5: growth control rate is above 85%),5 (Level 5: growth control rate is above 85%)
COc1c(C(=O)Nc2nnc(C)o2)ccc(C(F)(F)F)c1[S@+]([O-])CCCC(F)(F)F [Compound 326],5 (Level 5: growth control rate is above 85%),5 (Level 5: growth control rate is above 85%),5 (Level 5: growth control rate is above 85%),5 (Level 5: growth control rate is above 85%),5 (Level 5: growth control rate is above 85%)
COc1c(C(=O)Nc2nnc(C)o2)ccc(C(F)(F)F)c1[S@@+]([O-])C(F)(F)C(F)(F)F [Compound 327],5 (Level 5: growth control rate is above 85%),5 (Level 5: growth control rate is above 85%),5 (Level 5: growth control rate is above 85%),5 (Level 5: growth control rate is above 85%),5 (Level 5: growth control rate is above 85%)
COc1c(C(=O)Nc2nnc(C)o2)ccc(C(F)(F)F)c1[S@@+]([O-])C(F)(F)C(F)(F)C(F)(F)F [Compound 328],5 (Level 5: growth control rate is above 85%),5 (Level 5: growth control rate is above 85%),5 (Level 5: growth control rate is above 85%),5 (Level 5: growth control rate is above 85%),5 (Level 5: growth control rate is above 85%)
COc1c(C(=O)Nc2nnc(C)o2)ccc(C(F)(F)F)c1[S@+]([O-])CCC(F)(F)C(F)(F)F [Compound 329],5 (Level 5: growth control rate is above 85%),5 (Level 5: growth control rate is above 85%),5 (Level 5: growth control rate is above 85%),5 (Level 5: growth control rate is above 85%),5 (Level 5: growth control rate is above 85%)
COc1c(C(=O)Nc2nnc(C)o2)ccc(C(F)(F)F)c1[S@@+]([O-])C(F)(C(F)(F)F)C(F)(F)F [Compound 330],5 (Level 5: growth control rate is above 85%),5 (Level 5: growth control rate is above 85%),5 (Level 5: growth control rate is above 85%),5 (Level 5: growth control rate is above 85%),5 (Level 5: growth control rate is above 85%)
COc1c(C(=O)Nc2nnc(C)o2)ccc(C(F)(F)F)c1[S@+]([O-])CCC(F)(C(F)(F)F)C(F)(F)F [Compound 331],5 (Level 5: growth control rate is above 85%),5 (Level 5: growth control rate is above 85%),5 (Level 5: growth control rate is above 85%),5 (Level 5: growth control rate is above 85%),5 (Level 5: growth control rate is above 85%)
COc1c(C(=O)Nc2nnc(C)o2)ccc(C(F)(F)F)c1[S@+]([O-])CCCl [Compound 332],5 (Level 5: growth control rate is above 85%),5 (Level 5: growth control rate is above 85%),5 (Level 5: growth control rate is above 85%),5 (Level 5: growth control rate is above 85%),5 (Level 5: growth control rate is above 85%)
COc1c(C(=O)Nc2nnc(C)o2)ccc(C(F)(F)F)c1[S@+]([O-])CCCCl [Compound 333],5 (Level 5: growth control rate is above 85%),5 (Level 5: growth control rate is above 85%),5 (Level 5: growth control rate is above 85%),5 (Level 5: growth control rate is above 85%),5 (Level 5: growth control rate is above 85%)
